Results from patent US20230032101A1, “FIVE-MEMBERED HETEROCYCLIC OXOCARBOXYLIC ACID COMPOUND AND MEDICAL USE THEREOF” (Shanghai Institute of Materia Medica, Chinese Academy of …, priority 2019, published 2023).

Legend:
human-derived STING = human-derived STING (Homo sapiens, UniProt Q86WV6); conditions: cited from earlier work
[1] = tested on: type I interferon pathway in murine Raw-lucia cells; test: Activation of type I interferon pathway in murine Raw-lucia cells (QUANTI-Luc luminescence); assay type: cell-based; conditions: Mus musculus, 24 h, Compound Luminescence/Control Luminescence, ≥2 times considered valid, read-out: Fold Change
Description: Raw-lucia cells were counted, the cell concentration was adjusted to 5×10^5/mL, and 180 μL of cells were added to each well for incubation. 20 μL of compound diluted with physiological saline was added to each well of a 96-well cell culture plate after cells were adhered, the concentration of the compound was 50 μM/100 μM.
After 24 hours, 20 μL of the culture medium was took out from each well to a new 96-well plate with bottom-transmitting, 50 μL of the luciferase detection reagent QUANTI-Luc™ was added, and the […] was measured immediately (in the dark). The experiment was repeated twice.

[2] = tested on: type I interferon pathway (ISG) in human THP1-Blue-ISG cells; test: Activation of type I interferon pathway (ISG) in human THP1-Blue-ISG cells (Quanti-Blue, OD650); assay type: cell-based; conditions: Homo sapiens, THP1-Blue ISG; 10 μM, 24 h; Compound OD650/Control OD650; ≥2 times considered valid; read-out: Fold Change
Description: 20 μL of compound diluted with physiological saline was added to each well of a 96-well cell culture plate, the positive control compound was ADU-S100, and the solvent control group was added with 20 μL of physiological saline containing DMSO. THP1-Blue-ISG cells were counted, the cell concentration was adjusted to 5×10^5/mL, and 180 μL of cells were added to each well for incubation. Therefore, the final volume of each test well was 200 μL, the content of DMSO was 0.1%/0.5%, the test concentration of the compound was 10/50 μM, and the positive control compound was ADU-S100 at a final concentration of 10 μM, and incubated for 24 hours for detection.
After 24 hours, 20 μL of the culture solution was took out from each well to a new 96-well plate, 180 μL of chromogenic solution Quanti-Blue was added, placed in a 37° C. incubator, and the OD650 value was measured after 0.5-2 hours. The experiment was repeated twice.
The experimental results were used to evaluate the ability of compounds to induce the secretion of type I interferon pathway (ISG) by the Fold Change, which was calculated as follows:
Fold Change=Compound OD650/Control OD650, wherein the results of ≥2 times were considered valid.

[3] = tested on: CT26 mouse colon cancer cells; test: CT26 colon cancer subcutaneous xenograft model in vivo; conditions: Balb/C mice, intratumoral injection (IT), days 1/2/3/4/7; FIG. 2
Description: […] When the tumor volume grew to about 100 mm^3, the mice were randomly divided into 5 groups, 6 mice in each group.
(§1) Experimental results were evaluated in the form of tumor volume growth curves.

[4] = tested on: 4T1 mouse breast cancer cells; test: 4T1 breast cancer orthotopic tumor model in vivo; conditions: Balb/C mice, intratumoral injection (IT), days 1/2/3/4/7; FIG. 1
Description: 6-8 week old Balb/C mice were inoculated with 2.5×10^5 4T1 mouse breast cancer cells in the mammary fat pad of each mouse. When the tumor volume grew to about 100 mm^3, the mice were randomly divided into 5 groups, 6 mice in each group.
as §1

[5] = tested on: type I interferon pathway (ISG) in human THP1-Blue-ISG cells; test: Activation of type I interferon pathway (ISG) in human THP1-Blue-ISG cells (Quanti-Blue, OD650); assay type: cell-based; conditions: 30 μM, 24 h, Compound OD650/Control OD650, ≥2 times considered valid, read-out: Fold Change

Sequence of human-derived STING (Q86WV6 whole entry H232R): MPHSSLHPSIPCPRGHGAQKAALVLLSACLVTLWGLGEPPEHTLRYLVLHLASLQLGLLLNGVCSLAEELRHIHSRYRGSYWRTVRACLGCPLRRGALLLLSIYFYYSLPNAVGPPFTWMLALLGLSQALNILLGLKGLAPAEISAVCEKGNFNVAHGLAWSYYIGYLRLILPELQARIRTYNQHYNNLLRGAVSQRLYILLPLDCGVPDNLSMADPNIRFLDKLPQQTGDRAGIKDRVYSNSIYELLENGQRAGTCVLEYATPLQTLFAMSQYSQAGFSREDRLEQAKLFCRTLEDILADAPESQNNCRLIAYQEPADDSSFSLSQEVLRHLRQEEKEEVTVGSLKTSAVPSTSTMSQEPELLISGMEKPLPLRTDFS

SMILES	fold induction at 50 µM [1]	fold induction at 100 µM [1]	fold induction at 30 µM [5]	further results
Cc1ccc2c(=O)c3cccc(CC(=O)O)c3oc2c1C [DMXAA]	–	–	–	agonistic effect on STING (human-derived STING): ineffective
O=C(O)CCC(=O)c1cc(-c2c[nH]c3ccccc23)cs1 [I′-31, 4-(4-(1H-indol-3-yl)thiophen-2-yl)-4-oxobutyric Acid]	21.8	–	–	fold induction at 10 µM [2]: 13.8; anti-tumor effect (tumor volume growth curves) [3]: significant anti-tumor effect; tumor regression [3]: tumor regression effect is achieved in some mouse tumor models; anti-tumor effect (tumor volume growth curves) [4]: significant anti-tumor effect; tumor regression [4]: tumor regression effect is achieved in some mouse tumor models
O=C(O)CCC(=O)c1cc(-c2coc3cc(F)ccc23)co1 [I′-42, 4-(4-(6-fluorobenzofuran-3-yl)furan-2-yl)-4-oxobutyric Acid]	–	7.45	16.8	–
O=C(O)CCC(=O)c1cc(-c2c[nH]c3ccc(F)cc23)cs1 [I′-48, 4-(4-(5-fluoro-1H-indol-3-yl)thiophen-2-yl)-4-oxobutyric Acid]	–	7.63	14.7	–
O=C(O)CCC(=O)c1cc(-c2coc3c(F)cccc23)cs1 [I′-55, 4-(4-(7-fluorobenzofuran-3-yl)thiophen-2-yl)-4-oxobutyric Acid]	12.2	–	16	–
O=C(O)CCC(=O)c1scc(-c2c[nH]c3ccccc23)c1F [I′-56, 4-(3-fluoro-4-(1H-indol-3-yl)thiophen-2-yl)-4-oxobutyric Acid]	12.9	–	14.9	–
